Test results as given in ChEMBL document CHEMBL5291721, “A preclinical secondary pharmacology resource illuminates target-adverse drug reaction associations of marketed drugs” (Nat Commun, 2023).

How the values were obtained:
[1] = target: Beta-1 adrenergic receptor (Homo sapiens, UniProt P08588); type: functional, cell-based
[2] = target: T1, Peroxisome proliferator-activated receptor gamma (Homo sapiens, UniProt P37231); type: functional
T1 sequence (P37231 whole entry): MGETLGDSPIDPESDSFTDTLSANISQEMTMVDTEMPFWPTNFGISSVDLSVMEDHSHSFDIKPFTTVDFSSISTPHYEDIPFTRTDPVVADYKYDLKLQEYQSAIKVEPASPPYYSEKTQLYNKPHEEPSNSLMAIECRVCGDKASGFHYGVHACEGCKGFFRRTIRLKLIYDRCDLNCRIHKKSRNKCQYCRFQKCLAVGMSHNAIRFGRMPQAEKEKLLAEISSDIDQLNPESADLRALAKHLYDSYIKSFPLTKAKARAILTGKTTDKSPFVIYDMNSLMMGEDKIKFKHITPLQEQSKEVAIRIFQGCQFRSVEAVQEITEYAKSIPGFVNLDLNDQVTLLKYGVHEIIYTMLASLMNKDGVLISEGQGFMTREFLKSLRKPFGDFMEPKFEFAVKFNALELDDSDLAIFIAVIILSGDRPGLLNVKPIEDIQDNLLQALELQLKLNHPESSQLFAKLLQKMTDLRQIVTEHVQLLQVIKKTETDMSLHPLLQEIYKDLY

[3] = target: T1, Peroxisome proliferator-activated receptor gamma; type: functional; remark: listed apart in the source
[4] = target: Gamma-aminobutyric acid receptor subunit alpha-1/alpha-2/beta-2/gamma-2 (Homo sapiens, UniProt P14867+P18507+P47869+P47870); type: functional, cell-based
[5] = target: T2, Muscarinic acetylcholine receptor M2 (Homo sapiens, UniProt P08172)
T2 sequence (P08172 whole entry): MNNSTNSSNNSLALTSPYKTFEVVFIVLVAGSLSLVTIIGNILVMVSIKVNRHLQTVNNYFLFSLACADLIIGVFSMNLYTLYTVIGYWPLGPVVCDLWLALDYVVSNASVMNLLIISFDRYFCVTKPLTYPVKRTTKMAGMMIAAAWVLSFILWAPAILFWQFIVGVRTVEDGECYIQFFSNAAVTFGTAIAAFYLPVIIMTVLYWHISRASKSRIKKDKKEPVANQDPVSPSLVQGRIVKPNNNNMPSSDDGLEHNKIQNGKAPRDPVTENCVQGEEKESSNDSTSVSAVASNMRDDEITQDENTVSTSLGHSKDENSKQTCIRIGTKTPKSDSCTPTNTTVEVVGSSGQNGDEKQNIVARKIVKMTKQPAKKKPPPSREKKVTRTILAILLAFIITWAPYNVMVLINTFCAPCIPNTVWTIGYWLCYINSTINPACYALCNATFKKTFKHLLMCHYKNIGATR

[6] = target: T3, Endothelin receptor type B (Homo sapiens, UniProt P24530)
T3 sequence (P24530 whole entry): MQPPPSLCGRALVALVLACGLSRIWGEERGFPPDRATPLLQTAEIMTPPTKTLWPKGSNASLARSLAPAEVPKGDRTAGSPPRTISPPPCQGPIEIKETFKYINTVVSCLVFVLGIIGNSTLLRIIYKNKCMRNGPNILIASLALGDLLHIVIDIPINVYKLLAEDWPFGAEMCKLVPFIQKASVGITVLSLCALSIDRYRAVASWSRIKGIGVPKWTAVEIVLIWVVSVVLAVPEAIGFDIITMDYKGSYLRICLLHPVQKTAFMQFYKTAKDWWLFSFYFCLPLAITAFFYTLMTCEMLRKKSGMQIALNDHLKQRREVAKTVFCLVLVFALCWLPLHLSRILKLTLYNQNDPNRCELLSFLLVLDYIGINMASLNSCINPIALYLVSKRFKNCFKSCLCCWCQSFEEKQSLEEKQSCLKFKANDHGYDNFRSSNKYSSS

D(4) dopamine receptor = target: T4, D(4) dopamine receptor (Homo sapiens, UniProt P21917)
T4 sequence (P21917 whole entry): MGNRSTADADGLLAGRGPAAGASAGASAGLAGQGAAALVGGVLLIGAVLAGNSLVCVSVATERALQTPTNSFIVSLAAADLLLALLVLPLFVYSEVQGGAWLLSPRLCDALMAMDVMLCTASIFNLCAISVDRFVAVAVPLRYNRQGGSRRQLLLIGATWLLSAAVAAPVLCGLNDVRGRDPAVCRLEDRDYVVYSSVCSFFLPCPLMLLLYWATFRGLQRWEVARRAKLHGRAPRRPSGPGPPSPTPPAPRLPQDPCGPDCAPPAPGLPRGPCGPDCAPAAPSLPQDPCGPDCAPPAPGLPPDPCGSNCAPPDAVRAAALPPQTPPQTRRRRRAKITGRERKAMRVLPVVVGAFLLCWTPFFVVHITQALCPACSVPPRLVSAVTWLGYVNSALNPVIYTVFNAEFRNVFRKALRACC

[7] = target: T5, Corticotropin-releasing factor receptor 2 (Homo sapiens, UniProt Q13324)
T5 sequence (Q13324 whole entry): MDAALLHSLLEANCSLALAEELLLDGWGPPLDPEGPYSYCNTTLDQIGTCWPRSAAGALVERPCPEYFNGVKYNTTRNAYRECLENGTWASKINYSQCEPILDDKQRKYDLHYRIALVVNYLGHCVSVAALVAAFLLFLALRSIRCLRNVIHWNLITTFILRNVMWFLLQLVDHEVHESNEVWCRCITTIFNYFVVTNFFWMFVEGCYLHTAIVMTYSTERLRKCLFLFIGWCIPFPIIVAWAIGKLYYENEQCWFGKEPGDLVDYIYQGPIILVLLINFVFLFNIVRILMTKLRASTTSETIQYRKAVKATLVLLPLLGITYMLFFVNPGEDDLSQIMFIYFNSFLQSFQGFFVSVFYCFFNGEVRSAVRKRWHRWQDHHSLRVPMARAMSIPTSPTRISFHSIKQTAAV

Cannabinoid receptor 1 = Cannabinoid receptor 1 (Homo sapiens, UniProt P21554); type: functional
Glucagon receptor = Glucagon receptor (Homo sapiens, UniProt P47871)
Histamine H2 receptor = Histamine H2 receptor (Homo sapiens, UniProt P25021)
[8] = target: 5-hydroxytryptamine receptor 6 (Homo sapiens, UniProt P50406)
Also: assay procedure not described here.

Beta-1 adrenergic receptor, sequence (P08588 whole entry): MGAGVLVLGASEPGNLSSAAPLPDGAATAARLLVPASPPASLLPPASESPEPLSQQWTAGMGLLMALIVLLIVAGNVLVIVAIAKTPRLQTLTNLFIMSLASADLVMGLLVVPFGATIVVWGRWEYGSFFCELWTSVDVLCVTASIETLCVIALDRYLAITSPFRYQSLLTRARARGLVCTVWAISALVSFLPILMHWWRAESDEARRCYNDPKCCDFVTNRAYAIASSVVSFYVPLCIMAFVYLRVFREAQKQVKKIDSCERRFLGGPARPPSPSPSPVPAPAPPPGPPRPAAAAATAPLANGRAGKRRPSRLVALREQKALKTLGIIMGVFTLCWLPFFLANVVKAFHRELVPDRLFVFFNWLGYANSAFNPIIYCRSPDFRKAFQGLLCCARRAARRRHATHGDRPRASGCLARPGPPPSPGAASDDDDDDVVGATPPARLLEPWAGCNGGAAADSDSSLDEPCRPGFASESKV
Gamma-aminobutyric acid receptor subunit alpha-1/alpha-2/beta-2/gamma-2, sequence (P14867 whole entry): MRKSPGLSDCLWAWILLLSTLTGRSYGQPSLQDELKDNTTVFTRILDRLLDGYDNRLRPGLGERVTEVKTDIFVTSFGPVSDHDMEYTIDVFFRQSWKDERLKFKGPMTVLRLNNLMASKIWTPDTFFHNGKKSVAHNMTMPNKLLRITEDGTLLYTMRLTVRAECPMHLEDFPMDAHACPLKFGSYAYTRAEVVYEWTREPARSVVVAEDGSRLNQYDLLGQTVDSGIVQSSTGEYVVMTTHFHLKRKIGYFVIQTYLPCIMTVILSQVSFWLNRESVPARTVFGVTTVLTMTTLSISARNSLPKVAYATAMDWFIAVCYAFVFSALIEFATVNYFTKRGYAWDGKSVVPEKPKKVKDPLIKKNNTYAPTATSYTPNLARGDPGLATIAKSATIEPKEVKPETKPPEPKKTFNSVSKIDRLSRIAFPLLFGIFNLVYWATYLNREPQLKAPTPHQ
Gamma-aminobutyric acid receptor subunit alpha-1/alpha-2/beta-2/gamma-2, sequence (P47870 whole entry): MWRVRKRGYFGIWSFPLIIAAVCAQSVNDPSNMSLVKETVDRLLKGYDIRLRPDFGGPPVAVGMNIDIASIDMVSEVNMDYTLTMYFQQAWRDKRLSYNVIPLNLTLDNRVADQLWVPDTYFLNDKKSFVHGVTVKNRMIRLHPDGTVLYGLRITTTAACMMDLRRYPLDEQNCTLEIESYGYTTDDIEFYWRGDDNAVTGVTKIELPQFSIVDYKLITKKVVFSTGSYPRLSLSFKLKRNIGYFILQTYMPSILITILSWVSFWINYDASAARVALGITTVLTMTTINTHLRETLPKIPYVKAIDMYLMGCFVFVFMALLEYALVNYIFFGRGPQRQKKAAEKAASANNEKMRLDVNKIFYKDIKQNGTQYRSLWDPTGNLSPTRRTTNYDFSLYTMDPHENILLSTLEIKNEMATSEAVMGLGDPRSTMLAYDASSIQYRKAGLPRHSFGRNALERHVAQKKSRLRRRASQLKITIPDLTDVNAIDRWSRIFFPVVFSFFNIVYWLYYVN
Gamma-aminobutyric acid receptor subunit alpha-1/alpha-2/beta-2/gamma-2, sequence (P18507 whole entry): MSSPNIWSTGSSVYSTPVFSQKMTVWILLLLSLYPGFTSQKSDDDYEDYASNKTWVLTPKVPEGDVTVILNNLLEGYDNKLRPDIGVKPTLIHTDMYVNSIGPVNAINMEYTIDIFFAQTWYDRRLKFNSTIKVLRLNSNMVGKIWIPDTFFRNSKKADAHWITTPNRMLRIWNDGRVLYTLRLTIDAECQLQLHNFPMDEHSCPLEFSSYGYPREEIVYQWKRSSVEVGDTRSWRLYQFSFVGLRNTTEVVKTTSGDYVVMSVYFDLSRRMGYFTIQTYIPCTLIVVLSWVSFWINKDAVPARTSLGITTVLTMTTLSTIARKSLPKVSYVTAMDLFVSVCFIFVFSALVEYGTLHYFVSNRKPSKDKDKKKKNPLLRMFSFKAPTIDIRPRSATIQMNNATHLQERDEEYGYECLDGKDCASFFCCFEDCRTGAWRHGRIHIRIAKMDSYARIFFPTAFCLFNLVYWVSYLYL
Gamma-aminobutyric acid receptor subunit alpha-1/alpha-2/beta-2/gamma-2, sequence (P47869 whole entry): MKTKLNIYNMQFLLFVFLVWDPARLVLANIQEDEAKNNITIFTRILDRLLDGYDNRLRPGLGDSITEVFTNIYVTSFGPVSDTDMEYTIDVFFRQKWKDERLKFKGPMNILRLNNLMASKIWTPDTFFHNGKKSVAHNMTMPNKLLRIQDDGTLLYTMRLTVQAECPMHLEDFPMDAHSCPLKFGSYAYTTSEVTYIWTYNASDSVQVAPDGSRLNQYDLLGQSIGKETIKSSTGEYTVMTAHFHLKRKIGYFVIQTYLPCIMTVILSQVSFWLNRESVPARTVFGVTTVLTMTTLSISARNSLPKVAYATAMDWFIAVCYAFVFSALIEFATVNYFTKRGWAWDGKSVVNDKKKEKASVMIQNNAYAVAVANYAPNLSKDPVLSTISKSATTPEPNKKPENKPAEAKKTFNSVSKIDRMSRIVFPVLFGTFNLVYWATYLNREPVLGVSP
Glucagon receptor, sequence (P47871 whole entry): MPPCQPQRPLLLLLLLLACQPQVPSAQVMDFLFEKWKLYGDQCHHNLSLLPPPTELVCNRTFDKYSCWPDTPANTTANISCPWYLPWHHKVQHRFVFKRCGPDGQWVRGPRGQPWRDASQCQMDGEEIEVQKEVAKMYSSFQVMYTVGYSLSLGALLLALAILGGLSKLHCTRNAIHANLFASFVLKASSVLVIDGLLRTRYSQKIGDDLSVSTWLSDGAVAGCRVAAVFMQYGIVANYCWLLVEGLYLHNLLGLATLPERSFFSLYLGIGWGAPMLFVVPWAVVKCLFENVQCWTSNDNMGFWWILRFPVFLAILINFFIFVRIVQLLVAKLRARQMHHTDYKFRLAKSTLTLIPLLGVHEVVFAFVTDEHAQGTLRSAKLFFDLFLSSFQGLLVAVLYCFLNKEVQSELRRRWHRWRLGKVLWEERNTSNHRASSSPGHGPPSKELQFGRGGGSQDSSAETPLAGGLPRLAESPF
Cannabinoid receptor 1, sequence (P21554 whole entry): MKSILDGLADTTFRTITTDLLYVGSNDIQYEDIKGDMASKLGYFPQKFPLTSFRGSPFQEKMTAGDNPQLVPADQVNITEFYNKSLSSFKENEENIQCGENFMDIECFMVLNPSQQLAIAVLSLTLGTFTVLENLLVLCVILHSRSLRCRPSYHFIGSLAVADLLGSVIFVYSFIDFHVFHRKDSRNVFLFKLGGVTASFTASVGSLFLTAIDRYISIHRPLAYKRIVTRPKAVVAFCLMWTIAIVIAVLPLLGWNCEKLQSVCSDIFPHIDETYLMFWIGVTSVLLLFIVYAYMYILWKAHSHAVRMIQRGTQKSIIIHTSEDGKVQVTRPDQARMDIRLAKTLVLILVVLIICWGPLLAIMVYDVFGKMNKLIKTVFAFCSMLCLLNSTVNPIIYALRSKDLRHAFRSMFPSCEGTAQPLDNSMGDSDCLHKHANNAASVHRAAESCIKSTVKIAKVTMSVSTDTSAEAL
5-hydroxytryptamine receptor 6, sequence (P50406 whole entry): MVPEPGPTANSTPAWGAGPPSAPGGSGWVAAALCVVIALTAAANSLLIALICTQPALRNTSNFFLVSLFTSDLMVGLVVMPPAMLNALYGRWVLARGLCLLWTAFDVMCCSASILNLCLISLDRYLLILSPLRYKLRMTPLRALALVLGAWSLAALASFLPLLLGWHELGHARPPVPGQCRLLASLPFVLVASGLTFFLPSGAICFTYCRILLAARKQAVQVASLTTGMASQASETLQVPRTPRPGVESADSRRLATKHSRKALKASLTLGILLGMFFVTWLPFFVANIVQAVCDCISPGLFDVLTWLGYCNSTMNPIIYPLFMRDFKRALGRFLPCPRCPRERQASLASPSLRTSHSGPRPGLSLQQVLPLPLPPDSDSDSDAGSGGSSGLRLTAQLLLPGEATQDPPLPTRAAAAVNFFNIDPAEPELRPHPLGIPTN
Histamine H2 receptor, sequence (P25021 whole entry): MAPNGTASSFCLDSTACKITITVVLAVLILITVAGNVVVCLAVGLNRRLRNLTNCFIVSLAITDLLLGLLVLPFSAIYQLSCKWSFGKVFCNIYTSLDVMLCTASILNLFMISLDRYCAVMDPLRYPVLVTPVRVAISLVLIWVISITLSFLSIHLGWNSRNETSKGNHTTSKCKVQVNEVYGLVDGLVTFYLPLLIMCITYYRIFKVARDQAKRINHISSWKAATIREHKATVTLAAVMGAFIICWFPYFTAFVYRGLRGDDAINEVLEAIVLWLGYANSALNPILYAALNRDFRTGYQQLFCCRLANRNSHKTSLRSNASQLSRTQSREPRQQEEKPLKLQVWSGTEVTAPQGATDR

Row | SMILES | AC50 [4] | AC50 [5] | AC50 [6] | AC50 (D(4) dopamine receptor) | AC50 [7] | AC50 (Glucagon receptor) | AC50 (Histamine H2 receptor) | other results
1 | CCC(C(=O)O)c1ccc(N2Cc3ccccc3C2=O)cc1 (configuration not stated) [INDOBUFEN] | – | – | – | – | – | – | – | AC50 [1]: > 30 µM
2 | CC(C)C(=O)c1c(C(C)C)nn2ccccc12 [IBUDILAST] | – | – | – | – | – | – | – | AC50 [1]: > 30 µM
3 | Cn1c(=O)c2c(ncn2CC2OCCO2)n(C)c1=O [DOXOFYLLINE] | – | – | – | – | – | – | – | AC50 [1]: > 30 µM
4 | CCC1(CC)C(=O)NCC(C)C1=O (configuration not stated) [METHYPRYLON] | > 30 µM | – | – | – | – | – | – | AC50 [2]: > 30 µM; AC50 [3]: > 30 µM
5 | COc1ccc2c3c1O[C@H]1[C@@H](O)C=C[C@H]4[C@@H](C2)N(C)CC[C@@]341 [CODEINE] | – | > 10 µM | > 30 µM | > 10 µM | > 30 µM | > 30 µM | > 10 µM | AC50 (Cannabinoid receptor 1): > 10 µM; AC50 [8]: > 10 µM
6 | CN1CCC(=C2c3ccccc3CCc3sccc32)CC1 [PIZOTYLINE] | > 30 µM | 0.059 µM | – | – | – | – | – | –
7 | N#Cc1ccc([C@H]2CCc3cncn32)c(F)c1 [OSILODROSTAT] | – | > 10 µM | > 10 µM | > 10 µM | – | – | > 10 µM | AC50 (Cannabinoid receptor 1): > 10 µM; AC50 [8]: > 10 µM
8 | CCOC(=O)[N-]c1cn(N2CCOCC2)n[o+]1 [MOLSIDOMINE] | – | – | – | – | – | – | – | AC50 [1]: > 30 µM
9 | CNS(=O)(=O)Cc1ccc2[nH]cc(CCN(C)C)c2c1 | > 30 µM | – | > 30 µM | > 10 µM | > 30 µM | > 30 µM | > 10 µM | AC50 (Cannabinoid receptor 1): > 10 µM; AC50 [8]: > 10 µM
10 | CCCN(CCC)C(=O)C(CCC(=O)O)NC(=O)c1ccccc1 (configuration not stated) [PROGLUMIDE] | – | > 10 µM | > 30 µM | > 10 µM | > 30 µM | > 30 µM | > 10 µM | –
11 | CO/N=C(\C(=O)N[C@@H]1C(=O)N2C(C(=O)O)=C(CSc3nnnn3C)CS[C@H]12)c1csc(N)n1 [CEFMENOXIME] | – | – | – | – | – | – | – | AC50 [2]: > 30 µM; AC50 [3]: > 30 µM
12 | CN1CCN(CC/C=C2/c3ccccc3Sc3ccc(S(=O)(=O)N(C)C)cc32)CC1 [THIOTHIXENE] | – | – | > 30 µM | 0.78 µM | > 30 µM | > 30 µM | 0.145 µM | AC50 (Cannabinoid receptor 1): > 10 µM; AC50 [8]: 0.455 µM
13 | O=C(NCCNCC(O)COc1ccc(O)cc1)N1CCOCC1 (configuration not stated) [XAMOTEROL] | > 30 µM | – | – | – | – | – | – | –
14 | NCC(=O)CCC(=O)O [AMINOLEVULINIC ACID] | > 30 µM | – | – | – | – | – | – | –
15 | CCCCc1ncc(/C=C(\Cc2cccs2)C(=O)O)n1Cc1ccc(C(=O)O)cc1 [EPROSARTAN] | – | > 10 µM | > 30 µM | > 10 µM | > 30 µM | > 30 µM | > 10 µM | AC50 (Cannabinoid receptor 1): > 10 µM; AC50 [8]: > 10 µM
16 | CCc1c(Cl)c(O)c(Cl)c(O)c1C(=O)O[C@H]1[C@H](O)[C@H](OC)[C@H](OC/C2=C\C=C\C[C@H](O)/C(C)=C/[C@H](CC)[C@@H](O[C@@H]3OC(C)(C)[C@@H](OC(=O)C(C)C)[C@H](O)[C@@H]3O)/C(C)=C/C(C)=C/C[C@@H]([C@@H](C)O)OC2=O)O[C@@H]1C [FIDAXOMICIN] | – | > 10 µM | > 30 µM | > 10 µM | > 30 µM | > 30 µM | > 10 µM | –
17 | C/C(O)=C(\C#N)C(=O)Nc1ccc(C(F)(F)F)cc1 [TERIFLUNOMIDE] | > 30 µM | – | – | – | – | – | – | AC50 [2]: > 30 µM; AC50 [3]: 25 µM
18 | CCN(CC)C(=O)N[C@H]1C[C@@H]2c3cccc4[nH]cc(c34)C[C@H]2N(C)C1 [TERGURIDE] | > 30 µM | – | – | – | – | – | – | AC50 [2]: > 30 µM; AC50 [3]: > 30 µM
19 | CC(=O)O[C@H]1CC[C@@]2(C)C(=CC[C@@H]3[C@@H]2CC[C@]2(C)C(c4cccnc4)=CC[C@@H]32)C1 [ABIRATERONE ACETATE] | – | – | – | – | – | – | – | AC50 [2]: > 30 µM; AC50 [3]: > 30 µM
20 | CCN1CCN(C(=O)N[C@@H](C(=O)N[C@@H]2C(=O)N3C(C(=O)O)=C(CSc4nnnn4C)CS[C@H]23)c2ccc(O)cc2)C(=O)C1=O [CEFOPERAZONE] | > 30 µM | – | – | – | – | – | – | AC50 [2]: > 30 µM; AC50 [3]: > 30 µM
21 | COc1ccc(CCN(C)CCCC(C#N)(c2cc(OC)c(OC)c(OC)c2)C(C)C)cc1OC (configuration not stated) [GALLOPAMIL] | – | – | – | – | – | – | – | AC50 [1]: > 30 µM
22 | CC(C)(C)c1cc(C(C)(C)C)c(NC(=O)c2c[nH]c3ccccc3c2=O)cc1O [IVACAFTOR] | – | > 10 µM | – | – | – | – | > 10 µM | –
23 | CC(C)OC(=O)CCC/C=C\C[C@@H]1[C@@H](CC[C@@H](O)CCc2ccccc2)[C@H](O)C[C@@H]1O [LATANOPROST] | > 30 µM | – | – | – | – | – | – | AC50 [2]: > 30 µM; AC50 [3]: > 30 µM
24 | CN1C(=O)C(O)N=C(c2ccccc2)c2cc(Cl)ccc21 (configuration not stated) [TEMAZEPAM] | – | > 10 µM | > 30 µM | > 10 µM | > 30 µM | > 30 µM | > 10 µM | –
25 | COc1cc2c(N)nc(N3CCN(C(=O)OCC(C)(C)O)CC3)nc2c(OC)c1OC [TRIMAZOSIN] | – | – | – | – | – | – | – | AC50 [1]: > 30 µM
26 | CCCc1nc(C(C)(C)O)c(C(=O)OCc2oc(=O)oc2C)n1Cc1ccc(-c2ccccc2-c2nnn[nH]2)cc1 [OLMESARTAN MEDOXOMIL] | – | – | > 50 µM | > 10 µM | > 30 µM | > 50 µM | – | AC50 (Cannabinoid receptor 1): > 10 µM; AC50 [8]: > 10 µM
